# Where two headings read alike, the source gives them in different places.
# Key:
# [1] = tested on: phosphorylation of Cdc2 Y15 (Wee1 substrate) in A427 cells; test: Phosphorylated Cdc2 MSD Electrochemiluminescence Assay; type: cell-based; details: Homo sapiens
# Outline: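 A427 cells (RPMI 1640, 10% FBS) treated 20 h after plating with 3-fold serial compound dilutions, in duplicate, 37 °C, 5% CO2; total incubation 6 h. Lysate Cdc2 pY15 read by MSD electrochemiluminescence sandwich immunoassay; % remaining signal normalised to DMSO (high) and reference Wee1 inhibitor (low) controls.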
# Wee1 kinase domain = target: T1, Wee1 kinase domain (Homo sapiens, UniProt P30291); test: Wee1 Kinase Biochemical Assay (ADP-Glo); details: 15 uM ATP
# T1 construct: Wee1 kinase domain was purchased from Carna (catalog #05-177); purchased Carna 05-177
# Outline: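 1 nM enzyme; 15 uM ATP; 2 ng/mL poly(Lys,Tyr 4:1); 40 mM Tris-HCl, 20 mM MgCl2, 0.1 mg/mL BSA, 2 mM DTT; 4 h, 25 °C; ADP-Glo; % inhibition vs DMSO and saturating positive-control wells.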
# [2] = A-427, class symbols, read-out: A427 pCDC2 MSD IC50
# [3] = class symbols, 1 nM Wee1 enzyme, 4 hours at 25° C.
# T1 sequence (P30291 299-569 limits assumed): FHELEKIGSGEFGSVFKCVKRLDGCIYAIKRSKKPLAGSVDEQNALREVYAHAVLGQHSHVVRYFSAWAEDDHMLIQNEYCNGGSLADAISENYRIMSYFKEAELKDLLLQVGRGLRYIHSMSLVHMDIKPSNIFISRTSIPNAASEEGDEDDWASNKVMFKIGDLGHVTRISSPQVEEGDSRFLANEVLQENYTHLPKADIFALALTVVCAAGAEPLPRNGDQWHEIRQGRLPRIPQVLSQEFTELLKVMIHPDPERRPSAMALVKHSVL
Structure (SMILES),"IC50 [1, 2]",IC50 (Wee1 kinase domain; [3]),"IC50 ([1]; A-427, pCDC2 MSD)","IC50 (Wee1 kinase domain; Wee1 kinase domain, ADP-Glo)"
"CC1(C)C[C@H]2N(c3cccc(P(C)(C)=O)n3)c3nc(Nc4ccn([C@@H]5CCOC5)c(=O)c4)ncc3[C@@]2(C)CO1 [Example 783, 4-(((4bR,8aR)-9-(6-(dimethylphosphoryl)pyridin-2-yl)-4b,7,7-trimethyl-4b,5,7,8,8a,9-hexahydropyrano[3′,4′:4,5]pyrrolo[2,3-d]pyrimidin-2-yl)amino)-1-((R)-tetrahydrofuran-3-yl)pyridin-2(1H)-one]",< 100 nM,< 10 nM,–,–
"CNCc1cccc(N2c3nc(Nc4ccc(N5[C@@H]6COC[C@H]5C6)cc4)ncc3[C@@]3(C)COC(C)(C)C[C@@H]23)n1 (single isomer, unassigned) [Example 479]",100 to 1000 nM,< 10 nM,–,–
"CC1(C)C[C@H]2N(c3cccc(N=S(C)(C)=O)n3)c3nc(Nc4ccc(N5CCN6CCC[C@@H]6C5)cc4)ncc3[C@@]2(C)CO1 (single isomer, unassigned) [Example 505]",100 to 1000 nM,< 10 nM,–,–
"CN1CC[C@@H](c2ccc(Nc3ncc4c(n3)N(c3cccc(N5CCOC5=O)n3)[C@@H]3CC(C)(C)OC[C@]43C)cc2)C1 (single isomer, unassigned) [Example 605]",100 to 1000 nM,< 10 nM,–,–
"CC1(C)C[C@H]2N(c3cccc(N4CCOC4=O)n3)c3nc(Nc4ccc(O[C@@H]5CCNC5)cc4)ncc3[C@@]2(C)CO1 [Example 622, 3-(6-((4bR,8aR)-4b,7,7-trimethyl-2-((4-(((R)-pyrrolidin-3-yl)oxy)phenyl)amino)-4b,7,8,8a-tetrahydropyrano[3′,4′:4,5]pyrrolo[2,3-d]pyrimidin-9(5H)-yl)pyridin-2-yl)oxazolidin-2-one]",100 to 1000 nM,< 10 nM,–,–
"C[C@H]1COC(=O)N1c1cccc(N2c3nc(Nc4ccc(N5C[C@H]6C[C@@H]5CN6C)cc4)ncc3[C@]3(C)COC(C)(C)C[C@H]23)n1 (single isomer, unassigned) [Example 246]",–,–,1000 to 10000 nM,10 to 100 nM
C[C@H]1COC(=O)N1c1cccc(N2c3nc(Nc4ccc(N5CCN(C)CC5)nn4)ncc3[C@@]3(C)COC(C)(C)C[C@@H]23)n1 [Example 249],–,–,100 to 1000 nM,< 10 nM
"CN1C[C@@H]2C[C@H]1CN2c1ccc(Nc2ncc3c(n2)N(c2cccc(C(C)(C)O)n2)[C@@H]2CC(C)(C)OC[C@]32C)cc1F (single isomer, unassigned) [Example 431]",100 to 1000 nM,< 10 nM,–,–
"CN1CCC[C@H]1c1cccc(N2c3nc(Nc4ccn(C5CCOCC5)c(=O)c4)ncc3[C@@]3(C)COC(C)(C)C[C@@H]23)n1 (single isomer, unassigned) [Example 393]",–,–,1000 to 10000 nM,< 10 nM
"CC1(C)C[C@H]2N(c3cccc(N4CCOC4=O)n3)c3nc(Nc4ccc([C@@H]5CNC[C@@H]5F)cc4)ncc3[C@@]2(C)CO1 [Example 675, 3-(6-((4bR,8aR)-2-((4-((3R,4R)-4-fluoropyrrolidin-3-yl)phenyl)amino)-4b,7,7-trimethyl-4b,7,8,8a-tetrahydropyrano[3′,4′:4,5]pyrrolo[2,3-d]pyrimidin-9(5H)-yl)pyridin-2-yl)oxazolidin-2-one]",100 to 1000 nM,< 10 nM,–,–
"CN1CCN(c2ccc(Nc3ncc4c(n3)N(c3cccc(C5CC5)n3)[C@@H]3CC(C)(C)OC[C@]43C)cc2)CC1 (single isomer, unassigned) [Example 774]",100 to 1000 nM,< 10 nM,–,–
"CNCc1cccc(N2c3nc(Nc4ccc(-c5cnn(C)c5)nc4)ncc3[C@@]3(C)COC(C)(C)C[C@@H]23)n1 (single isomer, unassigned) [Example 460]",100 to 1000 nM,< 10 nM,–,–
"CC1(C)C[C@H]2N(c3cccc(N=S(C)(C)=O)n3)c3nc(NC(=O)[C@H]4C[C@@H]4C4CCOCC4)ncc3[C@@]2(C)CO1 (single isomer, unassigned) [Example 411]",1000 to 10000 nM,< 10 nM,–,–
"Cn1cc(Nc2ncc3c(n2)N(c2cccc(N=S(C)(C)=O)n2)[C@@H]2CC(C)(C)OC[C@]32C)ccc1=O (single isomer, unassigned) [Example 495]",1000 to 10000 nM,< 10 nM,–,–
"CC1(C)C[C@H]2N(c3cccc([C@H]4CCNC4)n3)c3nc(Nc4ccc(N5CCOCC5)cc4)ncc3[C@@]2(C)CO1 (single isomer, unassigned) [Example 542]",100 to 1000 nM,< 10 nM,–,–
"CC1(C)CC2N(c3cccc(N=S(C)(C)=O)n3)c3nc(Nc4ccc(N5CCOCC5)cc4)ncc3C2(C)CO1 (single isomer, unassigned) [Example 496]",100 to 1000 nM,< 10 nM,–,–
"CN1CCC(c2cccc(N3c4nc(Nc5ccc(N6CCOCC6)cc5)ncc4[C@@]4(C)COC(C)(C)C[C@@H]34)n2)CC1 (single isomer, unassigned) [Example 533]",100 to 1000 nM,< 10 nM,–,–
"Cc1ccc(Nc2ncc3c(n2)N(c2cccc(N=S(C)(C)=O)n2)[C@@H]2CC(C)(C)OC[C@]32C)nn1 (single isomer, unassigned) [Example 364]",–,–,100 to 1000 nM,< 10 nM
"CN1CCN(c2ccc(Nc3ncc4c(n3)N(c3cccc(N5CCCC5=O)n3)[C@@H]3CC(C)(C)OC[C@]43C)cc2)CC1 (single isomer, unassigned) [Example 587]",100 to 1000 nM,< 10 nM,–,–
"C[C@H]1COC(=O)N1c1cccc(N2c3nc(Nc4ccc(N5C[C@H]6C[C@@H]5CN6C)c(F)c4)ncc3[C@@]3(C)COC(C)(C)C[C@@H]23)n1 (single isomer, unassigned) [Example 291]",–,–,100 to 1000 nM,< 10 nM
"CC1(C)C[C@H]2N(c3cccc(N4CCOC4=O)n3)c3nc(Nc4ccc([C@@H]5CNCC5(F)F)cc4)ncc3[C@@]2(C)CO1 [Example 680, 3-(6-((4bR,8aR)-2-((4-((R)-4,4-difluoropyrrolidin-3-yl)phenyl)amino)-4b,7,7-trimethyl-4b,7,8,8a-tetrahydropyrano[3′,4′:4,5]pyrrolo[2,3-d]pyrimidin-9(5H)-yl)pyridin-2-yl)oxazolidin-2-one]",100 to 1000 nM,< 10 nM,–,–
"CN1CCC(c2ccc(Nc3ncc4c(n3)N(c3cccc(N=S(C)(C)=O)n3)[C@@H]3CC(C)(C)OC[C@]43C)cn2)CC1 (single isomer, unassigned) [Example 140]",–,–,< 100 nM,< 10 nM
"CC1(C)C[C@H]2N(c3cccc(N4CCOC4=O)n3)c3nc(Nc4ccc([C@@H]5CCNC5)cc4)ncc3[C@@]2(C)CO1 (single isomer, unassigned) [Example 607]",100 to 1000 nM,< 10 nM,–,–
"CNCc1cccc(N2c3nc(Nc4ccc(N5CCN(C)CC5)c(C)c4)ncc3[C@@]3(C)COC(C)(C)C[C@@H]23)n1 (single isomer, unassigned) [Example 448]",100 to 1000 nM,< 10 nM,–,–
"CC1(C)C[C@H]2N(c3cccc(N4CCCC4=O)n3)c3nc(Nc4ccc(O[C@H]5CCNC5)cc4)ncc3[C@@]2(C)CO1 [Example 620, 1-(6-((4bR,8aR)-4b,7,7-trimethyl-2-((4-(((S)-pyrrolidin-3-yl)oxy)phenyl)amino)-4b,7,8,8a-tetrahydropyrano[3′,4′:4,5]pyrrolo[2,3-d]pyrimidin-9(5H)-yl)pyridin-2-yl)pyrrolidin-2-one]",< 100 nM,< 10 nM,–,–
"CC1(C)C[C@H]2N(c3cccc(N4CCOC4=O)n3)c3nc(Nc4ccc([C@H]5CCNC5)cc4)ncc3[C@@]2(C)CO1 (single isomer, unassigned) [Example 608]",100 to 1000 nM,< 10 nM,–,–

# From patent publication US20260166039A1 (SCHRÖDINGER, INC., priority 2022, published 2026)
